Calls of active or inactive are those of the source. No cut-off for these calls is given here.
What was measured:
[1] = Induction of tRNA-UCCA binding to T box antiterminator RNA AM1A at 200 uM by FRET method
[2] = Binding affinity to T box antiterminator RNA AM1A by FRET
[3] = Binding affinity to T box antiterminator RNA

Activity [1]: Active | Kd [2]: 8 µM | Kd [3]: 8 µM
Compound: NC[C@@H]1O[C@H](O[C@H]2[C@@H](O)[C@H](O[C@@H]3[C@@H](O)[C@H](N)C[C@H](N)[C@H]3O[C@H]3O[C@H](CN)[C@@H](O)[C@H](O)[C@H]3N)O[C@@H]2CO)[C@H](N)[C@@H](O)[C@@H]1O [FRAMYCETIN]

— ChEMBL document CHEMBL1149873, “Identification of neomycin B-binding site in T box antiterminator model RNA” (Bioorg Med Chem, 2008)
